Experimental data as given in patent US20140194460A1, “TREATMENT OF ENDOMETRIOSIS” (Ferring B.V., priority 2009, published 2014).
Values joined by “and” are separate entries in the source; they are usually repeats but may differ in a detail not shown here. Equal entries are not always repeated. “Also recorded” adds a separate entry of the source.

Tests used:
Assay type in all cases: in vivo, human
[1] = test system: dopamine receptor 2 (DAR2); experiment: DAR2 expression in endometriotic lesions by staining; details: after versus before treatment, FIG. 5
Description: DAR2 expression in human endometriotic lesions was measured by staining, by methods well known in the art (FIG. 5, bottom).

[2] = test system: endometriotic lesions; experiment: Histological analysis and Superarray QF-PCR expression analysis of index lesions removed at L1 and L2
Description: At the end of treatment, the L2 was performed and video recorded. During surgery the silk knot was identified in all patients, the suture removed and the area containing the index lesion left behind surgically excised. If significant adhesion formation was detected, lysis of adhesion was performed. The index lesions removed at L1 and L2 were fixed in formalin (approximately 75% of each lesion tissue) for histological verification and descriptive analysis of endometriosis. Formalin fixed samples were also employed for immunohistochemical analysis and subsequent quantification of vascularisation, vessel immatureness, Drd2 expression, cell proliferation, VEGFR2 expression and VEGFR2 activation by techniques well known in the art. The remaining portion of each lesion tissue (25%) was homogenized in Trizol and cryopreserved at −80° C. for subsequent Superarray QF-PCR analysis.

[3] = test system: Ca125; experiment: Ca125 level before and after treatment; details: per patient; after oral 25/50/75 micrograms/day titrated treatment, 18-20 weeks
Description: 1] Laparoscopy 1: an endometriotic implant was biopsied, and a second endometriotic implant, similar to the biopsied one, was marked with a non-absorbable suture. Pictures were taken before and after surgery from all individuals. The marked implant was photographed (e.g. FIG. 1A). The biopsy sample was analysed as described below. An assessment of ASRM stage pre-treatment was taken. The PRL level (μg/mL) and Ca125 level (IU/ml) for each patient was measured pre-treatment, by known methods. 3] Laparoscopy 2: in which the second (marked) implant was biopsied. The marked implant was photographed (e.g. FIG. 1B). The biopsy sample was analysed as described below. A second assessment of the ASRM stage post-treatment was completed. The PRL level (μg/mL) and Ca125 level (IU/ml) for each patient was measured post-treatment, by known methods.

[4] = test system: vessels in endometriotic lesions; experiment: Vascularisation of biopsy samples by CD31 immunofluorescence/immunohistochemistry; details: after versus before treatment, FIG. 2
Description: The vascularisation effects of the quinagolide were assessed by immunofluorescence/immunohistochemistry on the biopsy samples taken before and after treatment, by methods well known in the art. The CD31(+) signal was used which specifically stains for vessels; vessels are stained brown. In order to quantify vascularisation at least 10 random 40× microscopic fields per sample were photographed and analysed using Image pro-plus software. Areas of interest corresponding to vessels (brown stain) were segmented and marked; and those corresponding to non vascularised areas were segmented and marked differently. The marked image was then analysed to show the % vascularised area per tissue, and the results for samples before and after treatment are shown in FIG. 2.

[5] = test system: proliferating cells (Ki67+) in endometriotic implants; experiment: Proliferative activity by Ki-67 immunocytochemistry; details: after versus before treatment, FIG. 3
Description: Immunocytochemistry with Ki-67 (monoclonal IgG1 DAKO Corp., Denmark) antibody was performed in order to evaluate the proliferative activity of the samples, by methods well known in the art. […] The images obtained show proliferating cells as positive for Ki67 with nuclear (brown/black) staining. At least 10 random 40× microscopic fields per sample were photographed and analysed. Areas of interest corresponding to proliferating cells (Ki67+) were segmented and marked, and counted.

[6] = test system: endometriosis; experiment: ASRM classification of endometriosis before and after treatment (pilot study); details: per patient (9 women with hyperprolactinemia and endometriosis); oral 25 then 50 then 75 micrograms/day, total 18-20 weeks; stage IV most severe, stage I least severe
Description: 1] Laparoscopy 1: an endometriotic implant was biopsied, and a second endometriotic implant, similar to the biopsied one, was marked with a non-absorbable suture. Pictures were taken before and after surgery from all individuals. The marked implant was photographed (e.g. FIG. 1A). The biopsy sample was analysed as described below. An assessment of ASRM stage pre-treatment was taken. The PRL level (μg/mL) and Ca125 level (IU/ml) for each patient was measured pre-treatment, by known methods.
3] Laparoscopy 2: in which the second (marked) implant was biopsied. The marked implant was photographed (e.g. FIG. 1B). The biopsy sample was analysed as described below. A second assessment of the ASRM stage post-treatment was completed. The PRL level (μg/mL) and Ca125 level (IU/ml) for each patient was measured post-treatment, by known methods.
Operative L1 and L2 were performed by two experienced surgeons using modern laparoscopic equipment and the surgeries were recorded by video. The severity of the disease was established according to the Revised American Society for Reproductive Medicine classification of endometriosis: […] (16). During L1, 4-6 index peritoneal red lesions were identified before surgical manipulation started. Half of the index lesions were surgically removed and stored as described below. […]

[7] = test system: peritoneal red endometriotic lesions; experiment: Macroscopic analysis: appearance and surface area of index endometriotic lesions at L1 and L2
Description: Operative L1 and L2 were performed by two experienced surgeons using modern laparoscopic equipment and the surgeries were recorded by video. The severity of the disease was established according to the Revised American Society for Reproductive Medicine classification of endometriosis: […] (16). During L1, 4-6 index peritoneal red lesions were identified before surgical manipulation started. Half of the index lesions were surgically removed and stored as described below. The remaining half index lesions were left behind and marked with an unabsorbable silk knot sature approximately 1 cm away from them. All non-index lesions were subsequently removed and discarded. […] Thus the study continued with 10 patients after L1. One patient discontinued treatment. At the end of treatment, the L2 was performed and video recorded. During surgery the silk knot was identified in all patients, the suture removed and the area containing the index lesion left behind surgically excised. If significant adhesion formation was detected, lysis of adhesion was performed. The index lesions removed at L1 and L2 were fixed in formalin (approximately 75% of each lesion tissue) for histological verification and descriptive analysis of endometriosis. Formalin fixed samples were also employed for immunohistochemical analysis and subsequent quantification of vascularisation, vessel immatureness, Drd2 expression, cell proliferation, VEGFR2 expression and VEGFR2 activation by techniques well known in the art. The remaining portion of each lesion tissue (25%) was homogenized in Trizol and cryopreserved at −80° C. for subsequent Superarray QF-PCR analysis. All laparoscopies were recorded with a Karl Storz (Germany) videocamera. […] Eligible frames were captured, copied to a PC computer and opened with ImagePro Plus Version 6.03 (Media Cybernetics, Silver Spring, Md., USA) software for image processing. The size of the black or grey cap served as a reference to measure the changes in surface induced by quinagolide at L2 over the lesions left behind during L1.

[8] = test system: PRL; experiment: Serum PRL level before and after treatment; details: per patient; after oral 25/50/75 micrograms/day titrated treatment, 18-20 weeks
Description: 1] Laparoscopy 1: an endometriotic implant was biopsied, and a second endometriotic implant, similar to the biopsied one, was marked with a non-absorbable suture. Pictures were taken before and after surgery from all individuals. The marked implant was photographed (e.g. FIG. 1A). The biopsy sample was analysed as described below. An assessment of ASRM stage pre-treatment was taken. The PRL level (μg/mL) and Ca125 level (IU/ml) for each patient was measured pre-treatment, by known methods. 3] Laparoscopy 2: in which the second (marked) implant was biopsied. The marked implant was photographed (e.g. FIG. 1B). The biopsy sample was analysed as described below. A second assessment of the ASRM stage post-treatment was completed. The PRL level (μg/mL) and Ca125 level (IU/ml) for each patient was measured post-treatment, by known methods. During the four month treatment period, i.e. between L1 and L2, patients were monthly monitored in our clinic to assess severity of common side effects of Drd2-A like dizziness, nausea and vomiting. During these visits, blood was drawn for subsequent EIA measurement of serum PRL, a marker of the level of Drd2 activity, to monitor compliance with taking the medication.

[9] = L2 versus L1, results not shown

CCCN1C[C@H](NS(=O)(=O)N(CC)CC)C[C@H]2Cc3c(O)cccc3C[C@@H]21 [quinagolide, (3R,4aR,10aS)-3-(Diethylsulfamoylamino)-6-hydroxy-1-propyl-3,4,4a,5,10,10a-hexahydro-2H-benzo[g]quinoline]
Expression of the dopamine receptor 2 (DAR2) in endometriotic lesions [1]: increases the expression
PAI-1 expression ([2]; L2 lesion): down-regulated
Histological analysis of lesions ([2]; L2 lesions): signs of tissue degeneration
Expression of Drd2 and antiangiogenic cytokine CXCL10 [2, 9]: upreguilating
Expression of VEGF/VEGFR2 and proangiogenic cytokines CCL2, RUNX1 and AGGF1 [2, 9]: downregulated
Ca125 level after treatment [3]: 25.9 IU/ml and 15.5 IU/ml and 18 IU/ml and 21.1 IU/ml and 22 IU/ml and 24.1 IU/ml and 20.4 IU/ml and 29.9 IU/ml and 24.9 IU/ml
Vascularisation of the endometriotic sample (% vascularised area, CD31) [4]: significant decrease in vascularisation
Cell proliferation (Ki-67 positive cells per microscopic field) [5]: trend towards reduced cell proliferation
ASRM post treatment [6]: Stage II; also recorded: Stage I; also recorded: Stage III
Decrease of mean total surface area (size) of index lesions, L2 versus L1 ([7]; 9 patients, after 18-20 weeks treatment): 68%
Mean of the total surface area of index lesions measured during L2 ([7]; 9 patients, vanished lesions counted as 100% size reduction, L1 value 36.09±20.56 mm^2, p<0.05): 11.57±12.54 mm^2
Lesions vanishing ([7]; after 18-20 weeks treatment): 35%
Number of recovered index lesions showing reduction in size compared to L1 ([7]; out of 15 lesions recovered at L2): 13
Number of red index lesions vanished at L2 ([7]; out of 23 red index lesions labelled at L1): 8
Number of patients with all index endometriotic lesions absent during L2 ([7]; out of the 9 patients): 2
Number of patients with vanished lesions combined with persisting lesions decreased in size ([7]; out of the 9 patients): 3
PRL level after treatment [8]: <0.6 μg/mL (2×) and 15.1 μg/mL and 14 μg/mL and 6.5 μg/mL and <0.1 μg/mL and 6.4 μg/mL and 1.1 μg/mL and 28.6 μg/mL
